Source: ChEMBL document CHEMBL1201862, “PubChem BioAssay data set” (2004)
Counter-ions that a name gives are not always drawn. Values belong to the compound of their own block, whether it stands above or below them. Active and inactive are the calls of the source.

Legend:
[1] = target: T1, Nucleotide-binding oligomerization domain-containing protein 1 (Homo sapiens, UniProt Q9Y239); experiment: SAR analysis of NF-kappaB dependent luciferase using DAP as an inducer - Set 2. [Related pubchem assays (depositor defined):AID1566, AID1575, AID1578, AID1579, AID1849, AID1852, AID2264]; assay type: functional
T1 sequence (Q9Y239 whole entry): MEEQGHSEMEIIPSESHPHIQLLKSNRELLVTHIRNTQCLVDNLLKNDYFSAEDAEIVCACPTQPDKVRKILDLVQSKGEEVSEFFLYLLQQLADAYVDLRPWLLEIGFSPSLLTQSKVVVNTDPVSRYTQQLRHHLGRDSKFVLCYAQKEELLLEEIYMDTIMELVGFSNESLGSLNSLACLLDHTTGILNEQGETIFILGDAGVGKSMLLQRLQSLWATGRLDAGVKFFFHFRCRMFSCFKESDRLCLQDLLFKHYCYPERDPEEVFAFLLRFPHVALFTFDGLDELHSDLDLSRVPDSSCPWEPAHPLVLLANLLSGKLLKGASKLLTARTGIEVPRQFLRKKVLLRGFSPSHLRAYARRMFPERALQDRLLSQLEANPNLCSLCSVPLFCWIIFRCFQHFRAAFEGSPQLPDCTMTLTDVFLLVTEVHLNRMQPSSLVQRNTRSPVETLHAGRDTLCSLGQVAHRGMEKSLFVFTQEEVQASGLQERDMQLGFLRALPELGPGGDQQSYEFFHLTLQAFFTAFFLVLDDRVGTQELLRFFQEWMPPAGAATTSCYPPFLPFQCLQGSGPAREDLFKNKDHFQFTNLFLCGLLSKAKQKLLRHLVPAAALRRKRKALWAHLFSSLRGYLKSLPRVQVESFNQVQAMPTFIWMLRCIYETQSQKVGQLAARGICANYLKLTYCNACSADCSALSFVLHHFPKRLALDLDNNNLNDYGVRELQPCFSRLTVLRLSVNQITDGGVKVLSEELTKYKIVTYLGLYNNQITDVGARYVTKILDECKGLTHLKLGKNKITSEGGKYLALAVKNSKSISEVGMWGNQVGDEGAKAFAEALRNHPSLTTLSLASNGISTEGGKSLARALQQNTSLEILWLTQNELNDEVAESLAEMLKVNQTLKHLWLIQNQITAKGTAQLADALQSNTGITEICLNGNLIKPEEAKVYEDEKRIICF

[2] = target: T2, Interleukin-8 (Homo sapiens, UniProt P10145); experiment: SAR analysis of Tumor necrosis factor alpha (TNF-alpha) induced IL-8 secretion in MCF-7/NOD1 cells - Set 2. [Related pubchem assays (depositor defined):AID1575, AID2250, AID2260]; assay type: functional, cell-based
T2 sequence (P10145 whole entry): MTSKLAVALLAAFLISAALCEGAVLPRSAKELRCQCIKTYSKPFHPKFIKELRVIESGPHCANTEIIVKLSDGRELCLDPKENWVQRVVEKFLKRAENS

[3] = target: T2, Interleukin-8; experiment: SAR analysis of GM-Tri-DAP induced IL-8 secretion in MCF-7/NOD1 cells - Set 2. [Related pubchem assays (depositor defined):AID1575, AID1578, AID2333]; assay type: functional, cell-based
[4] = target: T3, Nucleotide-binding oligomerization domain-containing protein 2 (Homo sapiens, UniProt Q9HC29); experiment: NOD2 inhibitors, SAR follow-up, set 2 (AID 2475); assay type: functional
T3 sequence (Q9HC29 whole entry, the tested form may be a part): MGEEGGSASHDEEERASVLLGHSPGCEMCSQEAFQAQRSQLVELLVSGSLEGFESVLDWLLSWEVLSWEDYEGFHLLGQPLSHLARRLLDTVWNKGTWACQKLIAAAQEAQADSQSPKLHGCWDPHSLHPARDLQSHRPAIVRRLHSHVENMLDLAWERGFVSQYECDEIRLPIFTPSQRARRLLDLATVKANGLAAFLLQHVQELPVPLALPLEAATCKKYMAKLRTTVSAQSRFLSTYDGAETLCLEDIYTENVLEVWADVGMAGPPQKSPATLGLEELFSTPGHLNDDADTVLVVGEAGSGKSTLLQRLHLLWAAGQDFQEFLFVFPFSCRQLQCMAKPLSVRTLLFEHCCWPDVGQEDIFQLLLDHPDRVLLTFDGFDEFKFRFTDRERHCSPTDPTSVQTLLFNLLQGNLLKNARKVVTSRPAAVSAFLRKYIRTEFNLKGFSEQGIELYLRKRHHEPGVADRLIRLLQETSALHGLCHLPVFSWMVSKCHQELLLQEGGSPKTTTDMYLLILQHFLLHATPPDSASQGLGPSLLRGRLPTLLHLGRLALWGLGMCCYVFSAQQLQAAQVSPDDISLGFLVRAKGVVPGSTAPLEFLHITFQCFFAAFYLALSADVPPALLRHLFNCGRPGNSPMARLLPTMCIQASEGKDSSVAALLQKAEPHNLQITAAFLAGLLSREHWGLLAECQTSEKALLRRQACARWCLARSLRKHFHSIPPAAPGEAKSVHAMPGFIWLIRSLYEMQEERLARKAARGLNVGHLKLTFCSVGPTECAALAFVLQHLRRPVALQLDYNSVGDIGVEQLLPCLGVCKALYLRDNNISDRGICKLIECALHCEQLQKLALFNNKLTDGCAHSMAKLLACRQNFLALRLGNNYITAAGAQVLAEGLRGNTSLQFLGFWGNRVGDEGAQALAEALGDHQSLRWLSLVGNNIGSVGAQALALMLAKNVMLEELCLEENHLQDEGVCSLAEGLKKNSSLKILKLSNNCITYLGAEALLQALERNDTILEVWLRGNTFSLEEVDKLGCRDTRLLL

[5] = test system: HEK293; experiment: SAR analysis of compounds that are cytotoxic to HEK293 - Set 2. [Related pubchem assays (depositor defined):AID1575, AID1578, AID1849, AID2001, AID2333, AID2334, AID2335, AID2337, AID2800]; assay type: functional, cell-based; conditions: Homo sapiens
[6] = target: T1, Nucleotide-binding oligomerization domain-containing protein 1; experiment: SAR analysis of compounds that inhibit NOD1 - Set 2. [Related pubchem assays (depositor defined):AID1566, AID1575, AID1578, AID1849, AID1852, AID2333, AID2335, AID2798]; assay type: functional
[7] = target: T1, Nucleotide-binding oligomerization domain-containing protein 1; experiment: SAR analysis of compounds that inhibit NOD1 - Set 3. [Related pubchem assays (depositor defined):AID1566, AID1575, AID1578, AID1849, AID1852, AID2333, AID2335, AID2466]; assay type: functional
[8] = target: Tumor necrosis factor (Homo sapiens, UniProt P01375); experiment: TNFa-triggered NF-kB activation inhibitors, SAR follow-up, cell-based, set 3 (AID 2801); assay type: functional
Sequence of Tumor necrosis factor (P01375 whole entry): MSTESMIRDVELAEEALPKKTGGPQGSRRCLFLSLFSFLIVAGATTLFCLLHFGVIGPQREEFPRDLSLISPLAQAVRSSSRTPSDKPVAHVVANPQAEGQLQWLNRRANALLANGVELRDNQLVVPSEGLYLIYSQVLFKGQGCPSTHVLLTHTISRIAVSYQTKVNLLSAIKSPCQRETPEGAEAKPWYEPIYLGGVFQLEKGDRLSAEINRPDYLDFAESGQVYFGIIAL

[9] = test system: HEK293; experiment: SAR analysis of compounds that are cytotoxic to HEK293 - Set 3. [Related pubchem assays (depositor defined):AID1575, AID1578, AID1848, AID1849, AID2001, AID2333, AID2334, AID2335, AID2337, AID2469]; assay type: functional, cell-based; conditions: Homo sapiens
[10] = target: T3, Nucleotide-binding oligomerization domain-containing protein 2; experiment: NOD2 signaling inhibitors, analog potency, SAR follow-up, cell-based, set 3 (AID 2799); assay type: functional
[11] = target: Voltage-gated inwardly rectifying potassium channel KCNH2 (Homo sapiens, UniProt Q12809); conditions: Potency;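 note: confirmatory quantitative high-throughput screen measuring inhibition of hERG channel activity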
Sequence of Voltage-gated inwardly rectifying potassium channel KCNH2 (Q12809 whole entry): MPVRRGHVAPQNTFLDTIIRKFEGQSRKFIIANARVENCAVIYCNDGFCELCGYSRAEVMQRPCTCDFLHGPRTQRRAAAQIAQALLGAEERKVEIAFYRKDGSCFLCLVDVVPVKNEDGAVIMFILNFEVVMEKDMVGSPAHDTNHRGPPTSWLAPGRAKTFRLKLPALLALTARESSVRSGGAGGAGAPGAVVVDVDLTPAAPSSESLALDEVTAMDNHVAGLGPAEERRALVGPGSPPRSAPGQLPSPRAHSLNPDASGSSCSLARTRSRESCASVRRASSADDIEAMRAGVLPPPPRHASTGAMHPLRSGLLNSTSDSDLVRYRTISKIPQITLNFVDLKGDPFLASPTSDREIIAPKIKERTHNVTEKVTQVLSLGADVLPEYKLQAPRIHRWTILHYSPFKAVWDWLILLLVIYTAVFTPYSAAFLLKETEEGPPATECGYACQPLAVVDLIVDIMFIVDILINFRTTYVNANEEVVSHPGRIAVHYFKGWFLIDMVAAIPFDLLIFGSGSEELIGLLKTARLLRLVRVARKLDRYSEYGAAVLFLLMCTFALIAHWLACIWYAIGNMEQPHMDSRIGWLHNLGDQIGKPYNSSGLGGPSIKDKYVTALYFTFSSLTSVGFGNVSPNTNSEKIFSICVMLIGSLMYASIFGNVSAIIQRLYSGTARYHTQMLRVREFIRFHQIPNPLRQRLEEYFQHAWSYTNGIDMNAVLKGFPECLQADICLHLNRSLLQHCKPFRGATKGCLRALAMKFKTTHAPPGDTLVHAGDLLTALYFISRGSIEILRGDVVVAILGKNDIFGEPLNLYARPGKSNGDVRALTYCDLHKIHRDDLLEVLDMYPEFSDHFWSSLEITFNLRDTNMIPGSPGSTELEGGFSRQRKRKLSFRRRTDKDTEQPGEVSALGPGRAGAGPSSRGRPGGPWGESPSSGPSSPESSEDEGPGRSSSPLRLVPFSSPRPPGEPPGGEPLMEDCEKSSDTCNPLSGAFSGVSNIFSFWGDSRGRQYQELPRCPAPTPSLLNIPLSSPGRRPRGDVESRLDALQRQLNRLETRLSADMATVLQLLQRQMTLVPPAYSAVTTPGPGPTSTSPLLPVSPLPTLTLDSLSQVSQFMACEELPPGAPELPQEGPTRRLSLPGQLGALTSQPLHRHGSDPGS

[12] = target: Cytochrome P450 3A4 (Homo sapiens, UniProt P08684);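 note: CYP3A4 tested as one member of a cytochrome P450 panel screen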
Sequence of Cytochrome P450 3A4 (P08684 whole entry): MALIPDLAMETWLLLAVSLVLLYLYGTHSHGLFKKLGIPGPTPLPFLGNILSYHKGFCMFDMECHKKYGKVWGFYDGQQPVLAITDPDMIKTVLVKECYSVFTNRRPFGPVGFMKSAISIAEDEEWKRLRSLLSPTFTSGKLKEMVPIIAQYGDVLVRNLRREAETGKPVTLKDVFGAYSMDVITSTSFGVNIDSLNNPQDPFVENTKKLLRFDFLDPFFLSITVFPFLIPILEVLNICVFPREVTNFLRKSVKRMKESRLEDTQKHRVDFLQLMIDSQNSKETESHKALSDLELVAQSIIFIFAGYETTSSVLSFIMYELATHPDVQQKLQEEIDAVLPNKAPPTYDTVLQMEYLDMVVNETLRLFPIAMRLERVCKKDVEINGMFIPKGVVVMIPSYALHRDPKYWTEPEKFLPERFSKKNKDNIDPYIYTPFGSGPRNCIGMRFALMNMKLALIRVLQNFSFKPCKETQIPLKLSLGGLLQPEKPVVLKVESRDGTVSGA

[13] = target: Beta-2 adrenergic receptor (Homo sapiens, UniProt P07550); experiment: beta2AR agonists driving receptor internalization, dose response, cell-based, FAP fluorogen, flow cytometry, cherry pick 1 (AID 588763); assay type: functional
Sequence of Beta-2 adrenergic receptor (P07550 whole entry): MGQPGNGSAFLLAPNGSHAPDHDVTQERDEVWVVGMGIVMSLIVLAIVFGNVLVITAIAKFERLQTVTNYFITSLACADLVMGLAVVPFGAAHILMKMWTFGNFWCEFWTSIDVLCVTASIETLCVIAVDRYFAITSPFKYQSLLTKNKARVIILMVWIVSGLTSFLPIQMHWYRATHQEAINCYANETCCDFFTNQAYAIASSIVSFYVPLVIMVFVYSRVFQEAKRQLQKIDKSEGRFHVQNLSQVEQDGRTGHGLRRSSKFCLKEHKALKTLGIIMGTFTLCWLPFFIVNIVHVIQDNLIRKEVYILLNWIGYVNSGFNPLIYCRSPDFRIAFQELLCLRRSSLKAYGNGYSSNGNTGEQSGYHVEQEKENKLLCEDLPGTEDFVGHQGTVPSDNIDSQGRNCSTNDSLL

[14] = target: SUMO E1/E2 (Homo sapiens, UniProt P63279+Q9UBE0+Q9UBT2); experiment: SAR analysis of SUMOylation using HTRF in an in-Vitro dose response assay. [Related pubchem assays (depositor defined):AID2006, AID2011, AID2018, AID2069, AID2658]; assay type: functional
Sequence of SUMO E1/E2 (Q9UBE0 whole entry): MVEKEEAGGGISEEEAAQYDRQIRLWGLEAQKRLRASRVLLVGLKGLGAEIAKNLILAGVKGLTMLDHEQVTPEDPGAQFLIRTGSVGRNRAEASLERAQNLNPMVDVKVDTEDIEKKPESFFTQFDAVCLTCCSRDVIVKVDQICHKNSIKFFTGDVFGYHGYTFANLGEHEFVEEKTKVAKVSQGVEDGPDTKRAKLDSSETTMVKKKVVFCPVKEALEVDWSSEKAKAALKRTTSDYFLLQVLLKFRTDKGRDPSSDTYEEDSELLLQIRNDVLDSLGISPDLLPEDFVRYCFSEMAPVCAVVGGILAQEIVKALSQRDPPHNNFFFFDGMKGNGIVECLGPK
Sequence of SUMO E1/E2 (Q9UBT2 whole entry): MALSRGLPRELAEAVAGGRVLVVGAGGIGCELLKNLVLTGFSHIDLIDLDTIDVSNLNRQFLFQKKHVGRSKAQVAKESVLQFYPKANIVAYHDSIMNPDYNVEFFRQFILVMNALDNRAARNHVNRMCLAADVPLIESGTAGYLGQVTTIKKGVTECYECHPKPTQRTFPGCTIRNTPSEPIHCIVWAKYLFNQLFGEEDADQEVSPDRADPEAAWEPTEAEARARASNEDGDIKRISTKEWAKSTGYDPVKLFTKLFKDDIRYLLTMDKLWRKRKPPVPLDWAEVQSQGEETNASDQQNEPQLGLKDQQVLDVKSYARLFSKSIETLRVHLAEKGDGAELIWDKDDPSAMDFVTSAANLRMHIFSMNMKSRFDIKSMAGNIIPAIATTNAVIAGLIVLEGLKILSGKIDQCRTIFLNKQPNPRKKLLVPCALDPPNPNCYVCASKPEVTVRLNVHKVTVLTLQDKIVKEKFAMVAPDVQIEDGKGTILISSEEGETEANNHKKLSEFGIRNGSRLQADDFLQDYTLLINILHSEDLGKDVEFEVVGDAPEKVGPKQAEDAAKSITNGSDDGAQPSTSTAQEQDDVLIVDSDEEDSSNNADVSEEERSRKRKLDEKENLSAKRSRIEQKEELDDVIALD
Sequence of SUMO E1/E2 (P63279 whole entry): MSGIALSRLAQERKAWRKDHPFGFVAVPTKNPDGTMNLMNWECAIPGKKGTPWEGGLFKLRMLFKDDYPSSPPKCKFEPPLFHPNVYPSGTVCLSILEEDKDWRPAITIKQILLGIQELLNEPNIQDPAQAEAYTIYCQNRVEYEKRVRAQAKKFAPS

[15] = Shn3 3'UTR reporter inhibitors, dose response, cell-based, Clone20 osteoblasts, firefly luciferase, cherry-picked (AID 624132); assay type: functional;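 note: firefly luciferase luminescence from reporter carrying the Shn3 3'UTR in osteoblasts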
[16] = control 3'UTR Renilla luciferase suppression, dose response, counter-screen for Shn3 inhibitor project, cell-based, Clone20-Shn3RL, cherry-picked (AID 624133); assay type: functional
[17] = reduction of Shn3 3'UTR firefly luciferase signal, dose response, Schnurri-3 inhibitor project, cell-based, Clone20 osteoblasts, cherry-pick, set 2 (AID 720490); assay type: functional;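 note: actives lower the luminescence signal as inhibitors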
[18] = insulin promoter down-regulators in MIN6 cells, imaging, high-content screening, mouse beta cells (AID 1628); assay type: functional
[19] = cytotoxicity in MIN6 insulinoma cells, dose response, cytotoxicity control, cell-based, mouse insulinoma (AID 2122); assay type: functional;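 note: confirmatory high-throughput counterscreen run to flag cytotoxic compounds; mouse MIN-6 beta cells carrying an insulin promoter eGFP reporter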
[20] = inhibitors of intracellular T. cruzi replication, confirmation, NIH3T3 host cells, beta-gal luminescence (AID 2044); assay type: functional, cell-based;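 note: intracellular parasites grown in NIH/3T3 mouse fibroblasts as host cells; luminescent beta-galactosidase reporter signal from transgenic T. cruzi replicating inside host cells; inhibitors lower the luminescence signal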
[21] = cytotoxicity toward NIH3T3 fibroblasts, dose response, counter-screen, cell-based, ATP luminescence, mouse fibroblasts (AID 2010); assay type: functional;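 note: cells exposed to compound for about 90 hours before reading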
[22] = target: T4, Bcl-2-related protein A1 (Mus musculus, UniProt Q07440); assay type: functional;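 note: confirmatory dose–response counterscreen on Bfl-1, used to check hits from a UBC13 polyubiquitin inhibitor campaign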
T4 sequence (Q07440 whole entry): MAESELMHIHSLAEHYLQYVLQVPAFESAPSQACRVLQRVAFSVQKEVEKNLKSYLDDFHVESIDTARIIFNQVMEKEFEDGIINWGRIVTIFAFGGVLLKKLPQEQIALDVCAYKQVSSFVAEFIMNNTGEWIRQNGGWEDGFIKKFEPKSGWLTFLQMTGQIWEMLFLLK

[23] = target: T5, Ubiquitin-conjugating enzyme E2 N (Homo sapiens, UniProt P61088); assay type: functional
T5 sequence (P61088 whole entry): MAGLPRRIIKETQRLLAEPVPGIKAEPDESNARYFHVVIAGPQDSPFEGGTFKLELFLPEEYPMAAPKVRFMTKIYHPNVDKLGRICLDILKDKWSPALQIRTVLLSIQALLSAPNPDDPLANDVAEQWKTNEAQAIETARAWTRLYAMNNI

[24] = target: T5, Ubiquitin-conjugating enzyme E2 N; assay type: functional; remark: listed apart in the source
[25] = test system: INS1; experiment: beta cell apoptosis inhibitors, cytokine rescue, dose response, luminescence, retest (AID 449756); assay type: functional, cell-based; conditions: Rattus norvegicus;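 note: cell death triggered by IL-1 beta plus TNF-alpha plus IFN-gamma mixture; protective hits raise ATP signal compared with cytokine alone wells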
[26] = THP-1 cell cytotoxicity, dose response, cytotoxicity control for Vif-APOBEC3G degradation inhibitor project, THP-1 cells (AID 1117359); assay type: functional; conditions: Human immunodeficiency virus 1, THP-1

Compound: C/C=C/Cn1c(SCc2ccc(Cl)cc2)nc2c1c(=O)[nH]c(=O)n2C
IC50 [1]: > 25 µM (inactive)
IC50 [2]: > 25 µM (inactive)
IC50 [3]: > 25 µM (inactive)
IC50 [4]: 13.7 µM (active)
IC50 [5]: > 20 µM (inactive)
IC50 [6]: 14.7 µM (active)
IC50 [7]: > 20 µM (inactive)
IC50 [8]: > 20 µM (inactive)
IC50 [9]: > 20 µM (inactive)
IC50 [10]: > 20 µM (inactive)

Compound: Nc1nc2c(nc(Br)n2C2O[C@H]3CO[P@@](=O)(O)O[C@@H]3C2O)c(=O)[nH]1 (stereo partly drawn)
AC50 [11]: 5.62 µM (inconclusive)

Compound: Nc1c2c(nc3ccccc13)CCCC2O (stereo not drawn) [VELNACRINE MALEATE]
AC50 [11]: 35.5 µM (inconclusive)

AC50 [12]: inconclusive
Compound: OCCN1CCOCCOCCN(CCO)CCN(CCO)CC1

EC50 [13]: 5.11 µM (active)
Compound: COc1ccccc1OCCCC(=O)Nc1nccs1

IC50 [14]: > 100 µM (inactive)
Compound: Cc1ccsc1/C=N/c1ccc(C(N)=O)cc1

Compound: Cc1ccc(-c2nc3ncccc3o2)cc1NC(=O)c1sc2ccccc2c1Cl
EC50 [13]: 0.722 µM (active)
AC50 [15]: 5.87 µM (active)
AC50 [16]: 36.5 µM (active)
AC50 [17]: 11.8 µM (active)

Compound: COc1cc(/C=N/N=C(N)N)ccc1OCc1ccc(Cl)cc1
IC50 [18]: 1.03 µM (active)
IC50 [19]: 0.916 µM (active)
EC50 [20]: 0.397 µM (active)
EC50 [21]: > 30 µM (not active)
IC50 [22]: > 20 µM (inactive)
IC50 [23]: 13.2 µM (active)
IC50 [24]: 12.9 µM (active)
AC50 [25]: 2.95 µM (active)
CC50 [26]: 5.63 µM (active)
